Results: patent publication US7811797B2, “α-isomaltosylglucosaccharide-forming enzyme, process and uses of the same” (Kabushiki Kaisha Hayashibara Seibutsu Kagaku Kenkyujo, priority 2000, dated 2010)

Tests used:
[1] = system: Bacteroides vulgatus JCM 5826; test: Assimilation test, Bacteroides vulgatus; type: cell-based; conditions: PYF medium with 0.5% saccharide, 37° C., four days, anaerobic
[2] = system: Escherichia coli IFO 3301; test: Assimilation test, Escherichia coli; type: cell-based; conditions: PYF medium with 0.5% saccharide, 37° C., four days, anaerobic
[3] = system: Small intestinal mucosal enzyme
[4] = system: α-isomaltosylglucosaccharide-forming enzyme; test: Transfer-acceptor specificity, Enzyme of Strain C9; type: biochemical, Bacillus globisporus C9; conditions: acceptor 1.6%, PINE-DEX #100 donor 4%, one unit/g donor, 30° C., pH 6.0, 24 hours
Procedure, shortened: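 Each candidate acceptor at 1.6% was combined with 4% partial starch hydrolysate donor and 1 unit/g donor (d.s.b.) of purified enzyme. Incubation ran 24 h at 30 °C, pH 6.0 for the C9, C11 and N75 enzymes and pH 8.4 for A19. Transfer products were detected by GLC for mono- and disaccharide acceptors and HPLC for trisaccharide acceptors.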

[5] = Digestion test in vitro, synthetic gastric juice

Row | SMILES | Assimilability [1] | Assimilability [2] | Decomposition percentage (%) by digestive enzyme [3] | digestibility relative to that of maltitol [3] | Product of transferring reaction, Enzyme of Strain C9 [4] | Decomposition percentage (%) by digestive enzyme [5]
1 | OCC1OC2OCC3O[C@H](O[C@H]4C(O)C(CO)OC(OCC5O[C@H](O[C@@H](C1O)C2O)C(O)C(O)[C@@H]5O)C4O)C(O)C(O)[C@@H]3O (stereo partly drawn) [Cyclotetrasaccharide, cyclo{→6)-α-D-glucopyranosyl-(1→3)-α-D-glucopyranosyl-(1→6)-α-D-glucopyranosyl-(1→3)-α-D-glucopyransoyl-(1→}] | − (judged negative (−) when the post culture had a pH of 6.0 or higher) | − (judged negative (−) when the post culture had a pH of 6.0 or higher) | 0.74% | ⅕ | – | –
2 | OC[C@@H](O)[C@@H](O[C@H]1O[C@H](CO)[C@@H](O)[C@H](O)[C@H]1O)[C@H](O)[C@@H](O)CO [Maltitol, reference compound] | – | – | – | – | ++ (a saccharide-transferred product was detected in an amount over ten percent through transfer reaction to acceptor) | 0.0%
